Source: the supplement of paper PMC10307832

Experiments:
Test in all cases: relative viability (nuclei count vs DMSO), 5 days (fraction); higher = more cells survive
[1] = tested on: LK-2
Outline: (§1)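 Lung cancer cell lines in 1536-well plates got either a single drug or a fixed anchor-drug dose together with five library-drug doses (not always all listed) in √10 steps, by pin tool, on the day after seeding. Nuclei were counted after 5 days, and relative viability is the treated-to-vehicle ratio of nuclei counts. Values are medians of duplicate plates.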

[2] = tested on: NCI-H647
Outline: as §1

[3] = tested on: SW 900
Outline: as §1

[4] = tested on: A-427
Outline: as §1

[5] = tested on: SK-LU-1
Outline: as §1

[6] = tested on: NCI-H2085
Outline: as §1

[7] = tested on: NCI-H322M
Outline: as §1

[8] = tested on: NCI-H3122
Outline: as §1

[9] = tested on: PC-14
Outline: as §1

[10] = tested on: UMC-11
Outline: as §1

[11] = tested on: NCI-H1993
Outline: as §1

[12] = tested on: NCI-H1734
Outline: as §1

[13] = tested on: H3255
Outline: as §1

[14] = tested on: NCI-H1651
Outline: as §1

[15] = tested on: EKVX
Outline: as §1

[16] = tested on: NCI-H460
Outline: as §1

[17] = tested on: RERF-LC-KJ
Outline: as §1

[18] = tested on: NCI-H1437
Outline: as §1

[19] = tested on: NCI-H2087
Outline: as §1

[20] = tested on: NCI-H2405
Outline: as §1

[21] = tested on: NCI-H2347
Outline: as §1

[22] = tested on: NCI-H358
Outline: as §1

[23] = tested on: COR-L23
Outline: as §1

[24] = tested on: NCI-H23
Outline: as §1

[25] = tested on: LXF-289
Outline: as §1

## Nc1cccc2c1CN(C1CCC(=O)NC1=O)C2=O (stereo not given) [Lenalidomide] + CC(=O)c1c(C)c2cnc(Nc3ccc(N4CCNCC4)cn3)nc2n(C2CCCC2)c1=O [Palbociclib] (partner 0.5 µM)
[1]; first compound 0.253 µM
  relative viability: 0.575
[1]; first compound 0.8 µM
  relative viability: 0.734
[1]; first compound 2.53 µM
  relative viability: 0.845
[1]; first compound 8 µM
  relative viability: 0.649
[2]; first compound 0.253 µM
  relative viability: 0.467
[2]; first compound 0.8 µM
  relative viability: 0.36
[2]; first compound 2.53 µM
  relative viability: 0.402
[2]; first compound 8 µM
  relative viability: 0.287
[3]; first compound 2.53 µM
  relative viability: 0.52
[3]; first compound 8 µM
  relative viability: 0.454
[4]; first compound 0.253 µM
  relative viability: 0.529
[4]; first compound 0.8 µM
  relative viability: 0.49
[4]; first compound 2.53 µM
  relative viability: 0.548
[4]; first compound 8 µM
  relative viability: 0.529
[5]; first compound 0.253 µM
  relative viability: 0.366
[5]; first compound 0.8 µM
  relative viability: 0.342
[5]; first compound 2.53 µM
  relative viability: 0.413
[5]; first compound 8 µM
  relative viability: 0.354
[6]; first compound 0.253 µM
  relative viability: 0.48
[6]; first compound 0.8 µM
  relative viability: 0.496
[6]; first compound 2.53 µM
  relative viability: 0.432
[6]; first compound 8 µM
  relative viability: 0.464
[7]; first compound 0.253 µM
  relative viability: 0.53
[7]; first compound 0.8 µM
  relative viability: 0.521
[7]; first compound 2.53 µM
  relative viability: 0.473
[7]; first compound 8 µM
  relative viability: 0.488
[8]; first compound 0.253 µM
  relative viability: 0.178
[8]; first compound 0.8 µM
  relative viability: 0.213
[8]; first compound 2.53 µM
  relative viability: 0.232
[8]; first compound 8 µM
  relative viability: 0.195
[9]; first compound 0.253 µM
  relative viability: 0.541
[9]; first compound 0.8 µM
  relative viability: 0.533
[9]; first compound 2.53 µM
  relative viability: 0.6
[9]; first compound 8 µM
  relative viability: 0.685
[10]; first compound 0.253 µM
  relative viability: 0.328
[10]; first compound 0.8 µM
  relative viability: 0.363
[10]; first compound 2.53 µM
  relative viability: 0.308
[10]; first compound 8 µM
  relative viability: 0.285
[11]; first compound 0.253 µM
  relative viability: 0.789
[11]; first compound 0.8 µM
  relative viability: 0.659
[11]; first compound 2.53 µM
  relative viability: 0.729
[11]; first compound 8 µM
  relative viability: 0.455
[12]; first compound 0.253 µM
  relative viability: 0.348
[12]; first compound 0.8 µM
  relative viability: 0.392
[12]; first compound 2.53 µM
  relative viability: 0.364
[12]; first compound 8 µM
  relative viability: 0.291
[13]; first compound 0.253 µM
  relative viability: 0.312
[13]; first compound 0.8 µM
  relative viability: 0.302
[13]; first compound 2.53 µM
  relative viability: 0.314
[13]; first compound 8 µM
  relative viability: 0.314
[14]; first compound 0.253 µM
  relative viability: 0.504
[14]; first compound 0.8 µM
  relative viability: 0.485
[14]; first compound 2.53 µM
  relative viability: 0.526
[14]; first compound 8 µM
  relative viability: 0.489
[15]; first compound 0.253 µM
  relative viability: 0.415
[15]; first compound 0.8 µM
  relative viability: 0.309
[15]; first compound 2.53 µM
  relative viability: 0.355
[15]; first compound 8 µM
  relative viability: 0.372
[16]; first compound 0.253 µM
  relative viability: 0.179
[16]; first compound 0.8 µM
  relative viability: 0.0987
[16]; first compound 2.53 µM
  relative viability: 0.197
[16]; first compound 8 µM
  relative viability: 0.142
[17]; first compound 0.253 µM
  relative viability: 1.09
[17]; first compound 0.8 µM
  relative viability: 1.06
[17]; first compound 2.53 µM
  relative viability: 1.21
[17]; first compound 8 µM
  relative viability: 1.03
[18]; first compound 0.253 µM
  relative viability: 0.331
[18]; first compound 0.8 µM
  relative viability: 0.246
[18]; first compound 2.53 µM
  relative viability: 0.359
[18]; first compound 8 µM
  relative viability: 0.353
[19]; first compound 0.253 µM
  relative viability: 0.248
[19]; first compound 2.53 µM
  relative viability: 0.192
[19]; first compound 8 µM
  relative viability: 0.196
[20]; first compound 0.253 µM
  relative viability: 0.513
[20]; first compound 0.8 µM
  relative viability: 0.529
[20]; first compound 2.53 µM
  relative viability: 0.524
[20]; first compound 8 µM
  relative viability: 0.45
[21]; first compound 0.253 µM
  relative viability: 0.492
[21]; first compound 0.8 µM
  relative viability: 0.446
[21]; first compound 2.53 µM
  relative viability: 0.494
[21]; first compound 8 µM
  relative viability: 0.424
[22]; first compound 0.8 µM
  relative viability: 0.139
[22]; first compound 2.53 µM
  relative viability: 0.142
[22]; first compound 8 µM
  relative viability: 0.132
[23]; first compound 0.253 µM
  relative viability: 0.342
[23]; first compound 0.8 µM
  relative viability: 0.34
[23]; first compound 2.53 µM
  relative viability: 0.308
[23]; first compound 8 µM
  relative viability: 0.348
[24]; first compound 0.253 µM
  relative viability: 0.534
[24]; first compound 2.53 µM
  relative viability: 0.517
[24]; first compound 8 µM
  relative viability: 0.442
[25]; first compound 0.253 µM
  relative viability: 0.616
[25]; first compound 0.8 µM
  relative viability: 0.63
[25]; first compound 2.53 µM
  relative viability: 0.657
[25]; first compound 8 µM
  relative viability: 0.668
